The text below walks through data of patent US12595269B2, “Morpholine-like monoamine releasers” (Solvonis Therapeutics Ireland Holdings Limited, priority 2022, dated 2026).

The target in data set [1] is T1, DAT (dopamine release) (Rattus norvegicus, UniProt P23977).
T1 construct: added to the tube containing the crude striatal synaptosomes preparation; from tissue; host or cells: rat striatum, crude synaptosomes
The data set is described as follows: Dopamine release filtration assay in rat striatal synaptosomes. The class given is cell-based. The settings on record: % of release by 50 μM MDMA, read-out: DAT release pEC50 (converted). As to the method: Methods and Procedure—Release: The potency of the disclosed compounds for stimulating dopamine (DA) release was measured by an endpoint release filtration assay in a 96-well format using rat synaptosomes, essentially as described by Sandtner et al., Mol. Pharmacol., 2016; 89(1):165-75, and Baumann et al., Neuropsychopharmacol., 2013; 38:552-562, with some variations.
One male rat was sacrificed and striatum/cortex regions were dissected over ice. The striatum portions were weighed and put in a glass tube for homogenization, containing ice-cold 0.32 M sucrose (dilution 1:24 w/v), while the frontal cortex tissue was diluted in ice-cold 0.32 M sucrose, 1:20 w/v. Tissues were homogenized and centrifuged for 10 mins at 1000×g. The two supernatants from striatum and cortex (crude synaptosomes) were retained on ice until use.
Test compounds were then serially diluted 1:4 in neat DMSO as concentration-response curves (CRC) of 11 points. […]
^3H-Dopamine was added to the tube containing the crude striatal synaptosomes preparation, diluted 1:20 (v/v) in complete Krebs-phosphate buffer, and was incubated at RT and gently mixed for 60 minutes. […] The retained radioactivity was counted in a scintillation counter after the addition of 50 μL/well Microscint-20.
The raw data (cpm) from residual radioactivity onto the filter were elaborated for the determination of pEC50/EC50 values. Specifically, the compound effect was expressed as the percent of maximal release obtained with 50 μM MDMA (100% release) in comparison to vehicle (0.5% DMSO, 0% release). […] In each plate, for both 0% and 100% of release, the signal window is monitored performing Z′ calculations using raw data of four replicates.

Data set [2] addresses T2, CYP2C9 (Homo sapiens, UniProt P11712).
T2 construct: host or cells: recombinant microsomes
As to the kind of experiment: CYP450 inhibition, fluorescent probe, recombinant microsomes: CYP2C9. Format: in vitro ADME. As for the experimental part: (§1) Methods and Procedure: The study was performed in agreement with previously described procedures to assure data integrity and adherence to GLP standards. Briefly, recombinant human CYP450 isoenzymes were used to metabolize pro-fluorescent probe substrates to fluorescent products. IC50 values determined from the effect of test compounds on the metabolism of these probe substrates were then used to determine inhibitory potency against CYP450 isoforms.
(§2) The test system was based on a three-step procedure with a “mix and read” format, where PGP-432,TI reaction and reading were performed at 37° C. […] Fluorescence was measured in kinetic mode (1 read/minutes for 10 minutes), and the fluorescence rate was calculated. […]
(§3) Microsomes were added to the buffer prior to the substrate addition. […] For fluorescence measurement, 10 μL/well of the test compounds were transferred from the compound plate to the assay plate using Biomek FX and the appropriate protocol. […]
(§4) 10 μL/well of the cofactor was then added to the assay plate using the Multidrop before placing the assay plate in the plate reader EnVision to measure fluorescence. […]
(§5) Next, 10 μL/well from the compound plate was added and incubated for 10 minutes at 37° C. on a plate shaker, while a mixture of Vivid Substrate and Vivid NADP+ in Vivid CYP450 Reaction Buffer was prepared. […] Regarding data analysis, the inhibition effect is expressed as a percentage. […]

Data set [3] addresses T3, CYP2C19 (Homo sapiens, UniProt P33261).
T3 construct: host or cells: recombinant microsomes
The data set is described as follows: CYP450 inhibition, fluorescent probe, recombinant microsomes: CYP2C19. The class given is in vitro ADME. As to the method: as §1, §2, §3, §4, §5

T1 sequence (P23977 whole entry): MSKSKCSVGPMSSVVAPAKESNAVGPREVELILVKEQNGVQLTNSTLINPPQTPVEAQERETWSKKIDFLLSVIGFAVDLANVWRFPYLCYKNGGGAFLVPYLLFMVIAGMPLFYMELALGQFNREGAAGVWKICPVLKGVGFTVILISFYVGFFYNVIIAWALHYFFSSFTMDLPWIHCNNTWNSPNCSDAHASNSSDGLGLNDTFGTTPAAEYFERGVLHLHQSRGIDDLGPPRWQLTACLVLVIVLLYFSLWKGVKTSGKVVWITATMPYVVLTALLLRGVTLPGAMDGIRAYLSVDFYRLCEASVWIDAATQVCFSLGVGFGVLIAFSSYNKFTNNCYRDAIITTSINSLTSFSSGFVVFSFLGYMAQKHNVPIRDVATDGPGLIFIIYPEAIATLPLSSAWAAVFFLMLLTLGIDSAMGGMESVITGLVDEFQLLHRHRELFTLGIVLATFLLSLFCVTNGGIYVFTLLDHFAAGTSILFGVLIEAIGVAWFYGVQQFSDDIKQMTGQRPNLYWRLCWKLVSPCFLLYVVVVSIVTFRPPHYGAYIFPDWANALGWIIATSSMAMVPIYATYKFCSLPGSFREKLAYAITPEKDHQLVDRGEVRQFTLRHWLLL
T2 sequence (P11712 whole entry): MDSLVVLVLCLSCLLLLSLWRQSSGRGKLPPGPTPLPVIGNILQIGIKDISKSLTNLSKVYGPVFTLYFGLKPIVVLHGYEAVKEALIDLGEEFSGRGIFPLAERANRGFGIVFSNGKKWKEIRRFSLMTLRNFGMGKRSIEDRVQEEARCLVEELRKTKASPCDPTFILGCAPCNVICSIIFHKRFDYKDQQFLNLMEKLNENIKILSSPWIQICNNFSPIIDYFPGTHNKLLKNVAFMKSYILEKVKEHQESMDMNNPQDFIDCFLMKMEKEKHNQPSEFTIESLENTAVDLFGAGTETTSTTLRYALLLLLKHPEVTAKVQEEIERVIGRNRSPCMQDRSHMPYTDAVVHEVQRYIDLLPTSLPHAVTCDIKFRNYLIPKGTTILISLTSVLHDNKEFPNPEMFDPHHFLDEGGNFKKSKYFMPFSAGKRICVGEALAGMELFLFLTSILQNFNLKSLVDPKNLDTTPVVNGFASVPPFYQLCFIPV
T3 sequence (P33261 whole entry): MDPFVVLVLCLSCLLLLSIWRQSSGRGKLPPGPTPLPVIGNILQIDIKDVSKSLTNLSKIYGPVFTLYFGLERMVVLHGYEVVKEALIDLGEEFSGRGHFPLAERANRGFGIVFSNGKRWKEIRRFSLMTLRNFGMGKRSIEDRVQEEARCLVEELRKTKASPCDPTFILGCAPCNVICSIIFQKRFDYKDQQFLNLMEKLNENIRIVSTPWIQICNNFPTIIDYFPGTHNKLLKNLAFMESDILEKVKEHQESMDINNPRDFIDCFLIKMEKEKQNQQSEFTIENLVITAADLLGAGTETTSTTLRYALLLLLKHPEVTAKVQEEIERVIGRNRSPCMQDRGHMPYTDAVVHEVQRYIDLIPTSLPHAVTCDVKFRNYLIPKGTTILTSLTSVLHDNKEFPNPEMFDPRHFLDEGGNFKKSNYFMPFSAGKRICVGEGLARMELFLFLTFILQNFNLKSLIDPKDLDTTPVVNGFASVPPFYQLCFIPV

One may read the IC50 as the point on the concentration scale where inhibition reaches its midpoint. For the molecule `Clc1ccc(C23CNC(CO2)C3)cc1Cl` (stereo not shown) [522A, 1-(3,4-dichlorophenyl)-2-oxa-5-azabicyclo[2.2.1]heptane], the EC50 in data set [1] is 0.0617 µM. In addition, the IC50 in data set [2] (recombinant human CYP2C9) and in data set [3] (recombinant human CYP2C19) was greater than 50 µM each time.
As for `Clc1ccc([C@@]23CN[C@@H](CO2)C3)cc1Cl` (single isomer, unassigned) [518A], the EC50 in data set [1] is 0.0331 µM.
The same measure, in the same setting: the result for `Clc1ccc([C@]23CN[C@H](CO2)C3)cc1Cl` (single isomer, unassigned) [516A] reads 1.1 µM.
Take `CNC(C)Cc1ccc2c(c1)OCO2` (stereo not shown) [MDMA, reference compound]: the IC50 at 10 min was 50 µM in data set [2] (human, recombinant microsomes expressing CYP2C9) and 50 µM in data set [3] (human, recombinant microsomes expressing CYP2C19).
